Like-named read-outs stand apart in the source and are kept apart here.
Key:
Format in all cases: cell-based, mouse
[1] = tested on: LPS-activated NO production in RAW 264.7 macrophages; test: Inhibition of LPS-induced NO production (nitrite, Griess reagent assay); details: for IC50: Mus musculus, read-out: IC50 NO; for NO inhibition (in words): LPS-induced NO production in RAW 264.7
Procedure: (§1) Mouse macrophage cell line (RAW 264.7) was obtained from Bioresource Collection and Research Center (BCRC 60001) and cultured at 37 °C in Dulbecco’s Modified Eagle’s Medium (DMEM) supplemented with 10% fetal bovine serum (Gibco), 4.5 g/L glucose, 4 mM glutamine, penicillin (100 units/mL), and streptomycin (100 μg/mL) in a humidified atmosphere in a 5% CO2 incubator. The cells were treated with 10, 25, 50 μM natural products in the presence of 1 μg/mL LPS (lipopolysaccharide, Sigma-Aldrich, St. Louis, MO, USA) for 20 h. The concentration of NO in culture supernatants was determined as nitrite, a major stable product of NO, by Griess reagent assay, and cell viabilities were determined using the MTT assay as described previously.

[2] = tested on: iNOS mRNA expression; test: RT-PCR analysis of LPS-induced iNOS mRNA expression; details: LPS treatment
[3] = tested on: RAW 264.7 cells; test: Cell viability, MTT assay; set-up: concentration or dose not given beside the values
Procedure: as §1

[4] = Cell viability, MTT assay; set-up: concentration or dose not given beside the values; details: mouse
Procedure: as §1

[5] = RAW264.7, RAW 264.7 macrophages, 1 μg/mL LPS, 20 h, mean ± SEM (n = 4) of 3 independent experiments
[6] = RAW 264.7 macrophage cells, RAW 264.7, MTT assay, read-out: cell viability
[7] = RAW 264.7 macrophage cells, RAW 264.7 macrophages, MTT assay, mean ± SEM, read-out: Cell Viability (% Control)

Structure (SMILES) | IC50 [1, 5] [µM] | effect on LPS-increased iNOS mRNA expression [2] | viability at 20 h [4, 6] [%] | viability at 20 h [4, 7] [%] | NO inhibition (in words) [1] | other results
CC(=O)OCC(C)(O)C1CCC(C)C12CC=C(C)CC2 (stereo not drawn) [Compound 2, 12-acetoxy-11-hydroxyacora-3-ene] | 34.2 ± 1.97 |  |  | 99.6 ± 5.53 | less effective NO inhibition | 
CC(C)c1cc2c(c(O)c1O)[C@@]1(C)CCC(=O)C(C)(C)C1[C@@H](O)[C@H]2O (stereo partly drawn) [Compound 3, 6α,7α,11-trihydroxy-3-oxoferrugiol] |  | inhibited this increase in a concentration-dependent manner |  |  | showed inhibitory activities | IC50 ([1]; RAW264.7, 20 h): 17.5 ± 1.85 µM; cell viability ([3]; mouse, 20 h): > 95%; viability at 20 h ([4]; Cell Viability (% Control)): 95.5 ± 3.39%; viability at 20 h ([4]; cell viability): > 80%
COc1cc(CCCOC(C)=O)cc(OC)c1O [Compound 7, amycolataiwanensin G] | 12.8 ± 4.82 |  | < 80 | 56.3 ± 3.91 |  | 
CC(C)=CCCC1(C)C=Cc2cc(-c3ccc(O)cc3)cc(O)c2O1 (stereo not drawn) [Compound 8, amycolataiwanensin H] | 17.8 ± 1.13 | inhibited this increase in a concentration-dependent manner | > 80 | 95.9 ± 1.32 |  | cell viability ([3]; RAW 264.7, MTT assay): > 95%
CC(O)c1ccc2c(c1)CCC1[C@](C)(C(=O)O)CCC[C@]21C (stereo partly drawn) [E] |  |  |  |  | showed inhibitory activities | 
CC(C)=CCCC1(C)C=Cc2cc(-c3ccc(O)cc3)cc(O)c2O1 (stereo not drawn) [H] |  |  |  |  | showed inhibitory activities | 
CC1(C)CCc2cc(-c3ccc(O)cc3)cc(O)c2O1 [I] |  |  |  |  | showed inhibitory activities | 
O=c1c(O)c(-c2ccc(O)c(O)c2)oc2cc(O)cc(O)c12 [Quercetin, quercetin, reference compound] | 35.9 ± 2.34 |  |  | 94.1 ± 1.32 |  | 

Further lines, with some results ahead:

IC50 [1, 5] [µM] | Structure (SMILES) | effect on LPS-increased iNOS mRNA expression [2] | viability at 20 h [4, 6] [%] | viability at 20 h [4, 7] [%] | NO inhibition (in words) [1] | other results
12.3 ± 4.97 | CC(O)c1ccc2c(c1)CCC1[C@](C)(C(=O)O)CCC[C@]21C (relative stereo) [Compound 5, (1R*,4aS*)-7-(1-hydroxyethyl)-1,4a-dimethyl-1,2,3,4,4a,9,10,10a-octahydrophenanthrene-1-carboxylic acid] | inhibited this increase in a concentration-dependent manner | > 80 | 82.2 ± 3.21 |  | cell viability ([3]; RAW 264.7, MTT assay): > 95%
> 100 | C[C@@H]1[C@@H](O)CC2C(C)(C)C3CC21CC[C@@]3(C)O (relative stereo) [Compound 10, (2S*,3S*,6R*)-3,6,8,8-tetramethyloctahydro-1H-3a,7-methanoazulene-2,6-diol] |  |  | 89.5 ± 2.15 |  | 
24.8 ± 1.63 | CC(C)C1=C(O)C(=O)C2=C(CCC3C(C)(C)[C@@H](O)CC[C@]23C)C1=O (stereo partly drawn) [Compound 4, amycolataiwanensin D] |  |  | 91.1 ± 4.22 |  | 
24.8 ± 12.9 | CC1(C)CCC2C(=CC1=O)CCC1C(C)(C(=O)O)CCCC21C (stereo not drawn) [Compound 6, 12(13→15)abeo-13-oxo-8(14)-abietene-18-oic acid] |  | < 80 | 76.3 ± 5.48 |  | 
13.3 ± 0.51 | CC1(C)CCc2cc(-c3ccc(O)cc3)cc(O)c2O1 [Compound 9, 6-(4-hydroxyphenyl)-2,2-dimethylchroman-8-ol] | inhibited this increase in a concentration-dependent manner | > 80 | 98 ± 1.53 |  | cell viability ([3]; RAW 264.7, MTT assay): > 95%
